Source: patent publication US20260317324A1, “BIFUNCTIONAL COMPOUNDS FOR DEGRADING BRAF VIA UBIQUITIN PROTEOSOME PATHWAY” (Nurix Therapeutics, Inc., priority 2023, published 2026)

Experiments:
Assay type in all cases: cell-based
BRAF V600E = target: T1, BRAF V600E (Homo sapiens, UniProt P15056, V600E); experiment: BRAF HiBiT degradation assay, C-terminal HiBiT-tagged BRAF V600E A375 cells (clone 1F10), Nano-Glo HiBiT Lytic assay; conditions: A375 (BRAF V600E); for DC50: DC50 at 50%: fitted conc. at Y=50; for Dmax: A-375, percentage protein degraded at maximal compound effect relative to DMSO
T1 construct: endogenous C-terminal HiBiT fusion tag on BRAF V600E allele; endogenous in cells; host or cells: A375 clone 1F10 (CRISPR-Cas9 knock-in of the HiBiT tag; parental A375 from ATCC)
T1 sequence (P15056 whole entry V600E, the tested form may be a part): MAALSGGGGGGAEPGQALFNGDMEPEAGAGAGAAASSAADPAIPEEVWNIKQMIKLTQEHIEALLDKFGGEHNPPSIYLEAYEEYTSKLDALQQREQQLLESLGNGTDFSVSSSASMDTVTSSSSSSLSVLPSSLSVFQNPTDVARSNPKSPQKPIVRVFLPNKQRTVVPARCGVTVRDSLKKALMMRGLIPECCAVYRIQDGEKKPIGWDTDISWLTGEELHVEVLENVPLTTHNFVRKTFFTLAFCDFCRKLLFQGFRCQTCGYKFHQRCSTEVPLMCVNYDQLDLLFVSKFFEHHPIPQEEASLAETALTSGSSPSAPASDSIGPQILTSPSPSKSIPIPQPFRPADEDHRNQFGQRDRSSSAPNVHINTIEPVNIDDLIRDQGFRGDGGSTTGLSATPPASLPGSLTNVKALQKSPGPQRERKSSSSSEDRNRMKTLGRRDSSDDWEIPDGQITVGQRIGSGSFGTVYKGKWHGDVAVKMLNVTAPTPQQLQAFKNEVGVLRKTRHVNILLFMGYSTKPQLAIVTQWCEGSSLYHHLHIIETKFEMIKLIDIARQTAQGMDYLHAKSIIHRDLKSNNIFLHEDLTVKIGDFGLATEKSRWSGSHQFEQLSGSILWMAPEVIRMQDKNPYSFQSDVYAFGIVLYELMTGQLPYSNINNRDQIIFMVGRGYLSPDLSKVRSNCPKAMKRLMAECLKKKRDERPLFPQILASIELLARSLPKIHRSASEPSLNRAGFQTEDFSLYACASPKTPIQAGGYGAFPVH
Outline: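 Degradation is measured as loss of HiBiT signal from BRAF V600E tagged at its native locus in A375 cells. Doses span 1 μM to 0.01 nM in half-log steps, in duplicate. Percent remaining is calculated against DMSO controls after subtracting untagged A375 background, and curve fitting yields DC50 and observed Dmax.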

BRAF G466V = target: T2, BRAF G466V (Homo sapiens, UniProt P15056, G466V); experiment: BRAF HiBiT degradation assay, C-terminal HiBiT-tagged BRAF G466V overexpressed in HCT-116 BRAF−/− cells (clone 8), Nano-Glo HiBiT Lytic assay; conditions: BRAF G466V; for DC50: DC50 at 50%: fitted conc. at Y=50; for Dmax: HCT-116, percentage protein degraded at maximal compound effect relative to DMSO
T2 construct: Horizon Discovery (HCT-116 BRAF−/− cells); host or cells: HCT-116 BRAF−/− cells, clone 8, lentiviral transduction
T2 sequence (P15056 whole entry G466V): as the sequence (P15056 whole entry V600E, the tested form may be a part) above, with G466V, E600V counted along it
Outline: (§1)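 First, the stable HiBiT-tagged cells were plated and incubated for 24 h. Next, compound was added in duplicate as an 11-point series with a 1 μM top concentration. Lytic detection followed, with DMSO-treated parental cells used for background. Finally, DC50 and Obs. Dmax relative to DMSO were derived from the % protein remaining curves.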

BRAF G469A = target: T3, BRAF G469A (Homo sapiens, UniProt P15056, G469A); experiment: BRAF HiBiT degradation assay, C-terminal HiBiT-tagged BRAF G469A overexpressed in HCT-116 BRAF−/− cells (clone 34), Nano-Glo HiBiT Lytic assay; conditions: Class 2, BRAF G469A; for DC50: DC50 at 50%: fitted conc. at Y=50; for Dmax: HCT-116, percentage protein degraded at maximal compound effect relative to DMSO
T3 construct: Horizon Discovery (HCT-116 BRAF−/− cells); host or cells: HCT-116 BRAF−/− cells, clone 34, lentiviral transduction
T3 sequence (P15056 whole entry G469A): as the sequence (P15056 whole entry V600E, the tested form may be a part) above, with G469A, E600V counted along it
Outline: as §1

BRAF D594G = target: T4, BRAF D594G (Homo sapiens, UniProt P15056, D594G); experiment: BRAF HiBiT degradation assay, C-terminal HiBiT-tagged BRAF D594G overexpressed in HCT-116 BRAF−/− cells (clone 63), Nano-Glo HiBiT Lytic assay; conditions: BRAF D594G; for DC50: DC50 at 50%: fitted conc. at Y=50; for Dmax: HCT-116, percentage protein degraded at maximal compound effect relative to DMSO
T4 construct: Horizon Discovery (HCT-116 BRAF−/− cells); host or cells: HCT-116 BRAF−/− cells, clone 63, lentiviral transduction
T4 sequence (P15056 whole entry D594G): as the sequence (P15056 whole entry V600E, the tested form may be a part) above, with D594G, E600V counted along it
Outline: as §1

SMILES	DC50 (BRAF V600E)	Dmax (BRAF V600E)	DC50 (BRAF G466V)	Dmax (BRAF G466V)	DC50 (BRAF G469A)	Dmax (BRAF G469A)	DC50 (BRAF D594G)	Dmax (BRAF D594G)
CCCS(=O)(=O)Nc1cccc(-c2cn(-c3ccc(C4CCN(CC5CCN(c6ccc(C7CCC(=O)NC7=O)cc6F)CC5)CC4)cc3)nc2-c2ccncc2)c1F (racemic) [Compound 22, Rac-N-{3-[1-(4-{1-[(1-{4-[(3R)-2,6-dioxopiperidin-3-yl]-2-fluorophenyl}piperidin-4-yl)methyl]piperidin-4-yl}phenyl)-3-(pyridin-4-yl)-1H-pyrazol-4-yl]-2-fluorophenyl}propane-1-sulfonamide]	0.01 to 0.05 µM	> 70%	0.05 to 0.5 µM	30 to 70%	> 0.5 µM	< 30%	> 0.5 µM	30 to 70%
CCCS(=O)(=O)Nc1cccc(-c2cn(-c3ccc(C4CCN(CC5CCN(c6ccc(C7CCC(=O)NC7=O)c(F)c6)CC5)CC4)cc3)nc2-c2ccncc2)c1F (racemic) [Compound 23, Rac-N-{3-[1-(4-{1-[(1-{4-[(3R)-2,6-dioxopiperidin-3-yl]-3-fluorophenyl}piperidin-4-yl)methyl]piperidin-4-yl}phenyl)-3-(pyridin-4-yl)-1H-pyrazol-4-yl]-2-fluorophenyl}propane-1-sulfonamide]	0.01 to 0.05 µM	> 70%	0.01 to 0.05 µM	30 to 70%	> 0.5 µM	< 30%	> 0.5 µM	30 to 70%
CCCS(=O)(=O)Nc1cccc(-c2cn(-c3ccc(C4CCN(CC5CCN(c6ccc(C7CCC(=O)NC7=O)cn6)CC5)CC4)cc3)nc2-c2ccncc2)c1F (racemic) [Compound 24, Rac-N-{3-[1-(4-{1-[(1-{5-[(3R)-2,6-dioxopiperidin-3-yl]pyridin-2-yl}piperidin-4-yl)methyl]piperidin-4-yl}phenyl)-3-(pyridin-4-yl)-1H-pyrazol-4-yl]-2-fluorophenyl}propane-1-sulfonamide]	0.01 to 0.05 µM	> 70%	0.01 to 0.05 µM	30 to 70%	> 0.5 µM	< 30%	> 0.5 µM	30 to 70%
CCCS(=O)(=O)Nc1cccc(-c2cn(-c3ccc(C4CCN(CC5CCN(c6ccc(C7CCC(=O)NC7=O)cc6)CC5)CC4)cc3)nc2-c2ccncc2)c1F (racemic) [Compound 25, Rac-N-{3-[1-(4-{1-[(1-{4-[(3R)-2,6-dioxopiperidin-3-yl]phenyl}piperidin-4-yl)methyl]piperidin-4-yl}phenyl)-3-(pyridin-4-yl)-1H-pyrazol-4-yl]-2-fluorophenyl}propane-1-sulfonamide]	0.01 to 0.05 µM	> 70%	0.01 to 0.05 µM	30 to 70%	> 0.5 µM	< 30%	> 0.5 µM	30 to 70%
CCN(C)S(=O)(=O)Nc1cccc(-c2nc(C(C)(C)C)sc2-c2ccnc(Nc3ccc(N4CCN(C(=O)CN5CCc6cc(C7CCC(=O)NC7=O)ccc6C5)CC4)c(F)c3)n2)c1F (racemic) [Compound 28, Rac-(3R)-3-[2-(2-{4-[4-({4-[2-tert-butyl-4-(3-{[ethyl(methyl)sulfamoyl]amino}-2-fluorophenyl)-1,3-thiazol-5-yl]pyrimidin-2-yl}amino)-2-fluorophenyl]piperazin-1-yl}-2-oxoethyl)-1,2,3,4-tetrahydroisoquinolin-6-yl]piperidine-2,6-dione]	< 0.01 µM	> 70%	< 0.01 µM	30 to 70%	0.01 to 0.05 µM	30 to 70%	0.01 to 0.05 µM	30 to 70%
CCN(C)S(=O)(=O)Nc1cccc(-c2nc(C(C)(C)C)sc2-c2ccnc(Nc3ccc(N4CCN(CC5CC6(C5)CN(c5ccc(C7CCC(=O)NC7=O)cn5)C6)CC4)cn3)n2)c1F (racemic) [Compound 30, Rac-(3R)-3-{6-[6-({4-[6-({4-[2-tert-butyl-4-(3-{[ethyl(methyl)sulfamoyl]amino}-2-fluorophenyl)-1,3-thiazol-5-yl]pyrimidin-2-yl}amino)pyridin-3-yl]piperazin-1-yl}methyl)-2-azaspiro[3.3]heptan-2-yl]pyridin-3-yl}piperidine-2,6-dione]	< 0.01 µM	> 70%	0.01 to 0.05 µM	30 to 70%	0.01 to 0.05 µM	30 to 70%	< 0.01 µM	30 to 70%
CCN(C)S(=O)(=O)Nc1cccc(-c2nc(C)sc2-c2ccnc(Nc3ccc(N4CCN(CC5(F)CCN(c6ccc(C7CCC(=O)NC7=O)cc6)CC5)CC4)cn3)n2)c1F (racemic) [Compound 33, Rac-(3S)-3-{4-[4-({4-[6-({4-[4-(3-{[ethyl(methyl)sulfamoyl]amino}-2-fluorophenyl)-2-methyl-1,3-thiazol-5-yl]pyrimidin-2-yl}amino)pyridin-3-yl]piperazin-1-yl}methyl)-4-fluoropiperidin-1-yl]phenyl}piperidine-2,6-dione]	0.01 to 0.05 µM	> 70%	< 0.01 µM	30 to 70%	< 0.01 µM	30 to 70%	0.01 to 0.05 µM	30 to 70%
CCCS(=O)(=O)Nc1cccc(-c2nc(C(C)(C)C)sc2-c2ccnc(Nc3ccc(C4CCN(CC5CCN(c6ccc(C7CCC(=O)NC7=O)cn6)CC5)CC4)cc3)n2)c1F (racemic) [Compound 35, Rac-N-[3-(2-tert-butyl-5-{2-[(4-{1-[(1-{5-[(3R)-2,6-dioxopiperidin-3-yl]pyridin-2-yl}piperidin-4-yl)methyl]piperidin-4-yl}phenyl)amino]pyrimidin-4-yl}-1,3-thiazol-4-yl)-2-fluorophenyl]propane-1-sulfonamide]	< 0.01 µM	> 70%	> 0.5 µM	30 to 70%	0.01 to 0.05 µM	< 30%	> 0.5 µM	30 to 70%
CCN(C)S(=O)(=O)Nc1cccc(-c2nc(C(C)(C)C)sc2-c2ccnc(Nc3ccc(N4CCN(C(=O)C5CCN(c6ccc(C7CCC(=O)NC7=O)cc6)CC5)CC4)cn3)n2)c1F (racemic) [Compound 36, Rac-(3S)-3-[4-(4-{4-[6-({4-[2-tert-butyl-4-(3-{[ethyl(methyl)sulfamoyl]amino}-2-fluorophenyl)-1,3-thiazol-5-yl]pyrimidin-2-yl}amino)pyridin-3-yl]piperazine-1-carbonyl}piperidin-1-yl)phenyl]piperidine-2,6-dione]	< 0.01 µM	> 70%	> 0.5 µM	< 30%	0.01 to 0.05 µM	30 to 70%	> 0.5 µM	30 to 70%
CCCS(=O)(=O)Nc1cccc(-c2nc(C(C)(C)C)sc2-c2ccnc(Nc3ccc(N4CCN(C(=O)C5CCN(c6ccc(C7CCC(=O)NC7=O)cc6)CC5)CC4)cc3)n2)c1F (racemic) [Compound 38, Rac-N-(3-{2-tert-butyl-5-[2-({4-[4-(1-{4-[(3R)-2,6-dioxopiperidin-3-yl]phenyl}piperidine-4-carbonyl)piperazin-1-yl]phenyl}amino)pyrimidin-4-yl]-1,3-thiazol-4-yl}-2-fluorophenyl)propane-1-sulfonamide]	< 0.01 µM	> 70%	> 0.5 µM	< 30%	0.01 to 0.05 µM	< 30%	> 0.5 µM	30 to 70%
CCN(C)S(=O)(=O)Nc1cccc(-c2nc(C)sc2-c2ccnc(Nc3ccc(N4CCN(C(=O)C5CCN(c6ccc(C7CCC(=O)NC7=O)cn6)CC5)CC4)cn3)n2)c1F (racemic) [Compound 40, Rac-(3S)-3-[6-(4-{4-[6-({4-[4-(3-{[ethyl(methyl)sulfamoyl]amino}-2-fluorophenyl)-2-methyl-1,3-thiazol-5-yl]pyrimidin-2-yl}amino)pyridin-3-yl]piperazine-1-carbonyl}piperidin-1-yl)pyridin-3-yl]piperidine-2,6-dione]	< 0.01 µM	> 70%	> 0.5 µM	30 to 70%	0.01 to 0.05 µM	30 to 70%	> 0.5 µM	30 to 70%
